Converted amounts (≈) assume the structure as drawn.
Tests used:
Assay type in all cases: functional
Staphylococcus aureus [1] = assay: Antimicrobial activity against methicillin-susceptible Staphylococcus aureus isolate 1
Staphylococcus aureus [2] = assay: Antimicrobial activity against methicillin-susceptible Staphylococcus aureus isolate 2
Staphylococcus aureus [3] = assay: Antimicrobial activity against methicillin-susceptible Staphylococcus aureus isolate 3
Staphylococcus aureus [4] = assay: Antimicrobial activity against methicillin-susceptible Staphylococcus aureus isolate 4
Staphylococcus aureus [5] = assay: Antimicrobial activity against methicillin-resistant Staphylococcus aureus isolate 5
Staphylococcus aureus [6] = assay: Antimicrobial activity against methicillin-resistant Staphylococcus aureus isolate 6
Staphylococcus aureus [7] = assay: Antimicrobial activity against methicillin-resistant Staphylococcus aureus isolate 7
Staphylococcus aureus [8] = assay: Antimicrobial activity against methicillin-resistant Staphylococcus aureus isolate 8
Staphylococcus aureus [9] = assay: Antimicrobial activity against vancomycin-intermediate Staphylococcus aureus isolate 9
Staphylococcus aureus [10] = assay: Antimicrobial activity against vancomycin-intermediate Staphylococcus aureus isolate 10
Staphylococcus aureus [11] = assay: Antimicrobial activity against vancomycin-susceptible Staphylococcus aureus isolate 11
Staphylococcus aureus [12] = assay: Antimicrobial activity against vancomycin-resistant Staphylococcus aureus isolate 12
Staphylococcus aureus [13] = assay: Antimicrobial activity against vancomycin-resistant Staphylococcus aureus isolate 13
Staphylococcus aureus [14] = assay: Antimicrobial activity against vancomycin-resistant Staphylococcus aureus isolate 14
Staphylococcus aureus [15] = assay: Antimicrobial activity against vancomycin-resistant Staphylococcus aureus isolate 15

Compound | MIC (Staphylococcus aureus [1]) | MIC (Staphylococcus aureus [2]) | MIC (Staphylococcus aureus [3]) | MIC (Staphylococcus aureus [4]) | MIC (Staphylococcus aureus [5]) | MIC (Staphylococcus aureus [6]) | MIC (Staphylococcus aureus [7]) | MIC (Staphylococcus aureus [8]) | MIC (Staphylococcus aureus [9]) | MIC (Staphylococcus aureus [10]) | MIC (Staphylococcus aureus [11]) | MIC (Staphylococcus aureus [12]) | MIC (Staphylococcus aureus [13]) | MIC (Staphylococcus aureus [14]) | MIC (Staphylococcus aureus [15])
CC12CC3CC4(C=CC(=O)C(C)(CCC(=O)Nc5c(O)ccc(C(=O)O)c5O)C4C3O1)C2 (racemic) [ISOPLATENSIMYCIN] | 128 µg/mL (≈ 290 µM) | > 128 µg/mL | > 128 µg/mL | 128 µg/mL (≈ 290 µM) | > 128 µg/mL | > 128 µg/mL | > 128 µg/mL | > 128 µg/mL | > 128 µg/mL | > 128 µg/mL | 16 µg/mL (≈ 36.2 µM) | 64 µg/mL (≈ 145 µM) | 32 µg/mL (≈ 72.5 µM) | 2 µg/mL (≈ 4.53 µM) | 4 µg/mL (≈ 9.06 µM)
CN[C@H](CC(C)C)C(=O)N[C@H]1C(=O)N[C@@H](CC(N)=O)C(=O)N[C@H]2C(=O)N[C@H]3C(=O)N[C@H](C(=O)N[C@H](C(=O)O)c4cc(O)cc(O)c4-c4cc3ccc4O)[C@H](O)c3ccc(c(Cl)c3)Oc3cc2cc(c3O[C@@H]2O[C@H](CO)[C@@H](O)[C@H](O)[C@H]2O[C@H]2C[C@](C)(N)[C@H](O)[C@H](C)O2)Oc2ccc(cc2Cl)[C@H]1O [VANCOMYCIN] | – | – | – | – | – | – | – | – | – | – | – | 32 µg/mL (≈ 22.1 µM) | 128 µg/mL (≈ 88.3 µM) | > 128 µg/mL | > 128 µg/mL
CC12C[C@@]34C=CC(=O)[C@@](C)(CCC(=O)Nc5c(O)ccc(C(=O)O)c5O)C3[C@H](CC1C4)O2 (mixture of isomers) [PLATENSIMYCIN] | 4 µg/mL | 64 µg/mL | 128 µg/mL | 2 µg/mL | 4 µg/mL | 4 µg/mL | 16 µg/mL | 4 µg/mL | 4 µg/mL | 4 µg/mL | 2 µg/mL | 1 µg/mL | 1 µg/mL | 0.5 µg/mL | 0.5 µg/mL
Cc1onc(-c2ccccc2)c1C(=O)N[C@@H]1C(=O)N2[C@@H]1SC(C)(C)[C@@H]2C(=O)O [OXACILLIN] | 0.125 µg/mL (≈ 0.311 µM) | 0.5 µg/mL (≈ 1.25 µM) | 0.125 µg/mL (≈ 0.311 µM) | 0.5 µg/mL (≈ 1.25 µM) | > 128 µg/mL | > 128 µg/mL | 16 µg/mL (≈ 39.9 µM) | > 128 µg/mL | > 128 µg/mL | > 128 µg/mL | – | – | – | – | –
